Laboratory results from patent US20120045393A1 (priority 2009, published 2012).
Where two headings read alike, the source gives them in different places. Values belong to the molecule of their own block, whether it stands above or below them. Non-standard residues stand in square brackets, D forms with d. Residues, ends and D or L forms follow the SMILES beside them. *: point of attachment. X1 = NC(=O)NNC(=O)[C@@H]1CCCN1C[C@H](Cc1ccc(C(=O)c2ccccc2)cc1)N*; DOTA = O=C(O)CN1CCN(CC(=O)O)CCN(CC(=O)*)CCN(CC(=O)O)CC1; Bpa = N[C@@H](Cc1ccc(C(=O)c2ccccc2)cc1)C(=O)O; d1Nal = N[C@H](Cc1cccc2ccccc12)C(=O)O; d2Nal = N[C@H](Cc1ccc2ccccc2c1)C(=O)O; DO3A10CM = not defined here; Bpa4 = non-natural residue; Hpgly = not defined here; azaGly = NNC(=O)O

Columns and labels:
[1] = In vitro metabolic stability in mouse liver homogenate at 37° C.; type: in vitro ADME; settings: for remaining at 1 h, 0.3 mg/mL: female, Tac:NCr:Foxn1nu/nu, mouse, tissue homogenate, pH 7.2
Description: Livers from 10 female Tac:NCr:Foxn1^nu/nu mice were excised, rinsed with ice cold PBS (no Ca^++ or Mg^++) and weighed. The tissues were minced with scissors in Petri dishes on ice with Tris buffered saline (Pierce BupH™ Tris buffered saline packs, #28376; 25 mM Tris, 150 mM NaCl, pH 7.2). After mincing, the tissues were dounce homogenized, and the total volume adjusted with ice cold Tris buffer (4 mL for every gram of excised tissue). The homogenate was centrifuged at ˜4000×g for 10 min at 4° C. The supernatants were aliquoted into Eppendorf tubes on ice (200 and 100 μl volumes) and stored at −80° C. Kidney homogenates were similarly prepared. […] The mixture was centrifuged at 4° C. for 20 min at 20,000×g to precipitate the protein; 10 μL (˜7.6 μCi) of the supernatant was injected into the HPLC for the analysis. […] Peaks at these retention times were also observed in the in vivo plasma sample (FIG. 1). […] After 0 and 60 min, the sample was removed from the incubator, immediately cooled on ice and 2 μL of 10 mM EDTA and 0.2 mL of ice-cooled MeOH were added, mixing after each addition. The proteins in the sample were separated by centrifugation at 14,000 rpm for 20 min. The supernatant was harvested and, in the samples spiked with the ^177Lu-analog, the radioactivity was measured using a Capintec dose calibrator to determine recovery. The sample was then analyzed by HPLC. […] After 0 and 60 min, the sample was removed from the incubator, immediately cooled on ice and 2 μL of 10 mM EDTA and 0.24 mL of ice-cooled methanol was added, mixing after each addition. The proteins in the sample were separated by centrifugation at 14,000 rpm for 20 min. The supernatant was collected and analyzed by LC/MS as described earlier herein.

[2] = tested on: LHRH binding sites on human ovarian cancer cells (EFO-27);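 also: Cell-associated radioactivity on confluent EFO-27 monolayers in 96-well plates, measured by microplate scintillation counting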
Description: The EFO27 human ovarian cancer cells were obtained from the American Type Culture Collection and cultured in growth medium, RPMI 1640 (Cellgro) supplemented with 10% fetal bovine serum. The cultures were maintained in a humidified atmosphere containing 5% CO2/95% air at 37° C. and passaged and harvested routinely using 0.05% trypsin/EDTA.
LHRH compounds were screened in a standard cell-based plate assay for their ability to compete with the radio-iodinated LHRH, [Darg^6, ^125I-Tyr^8,azaGly^10-LHRH-II] ([^125I-Tyr^8]BRU-2477) for binding to cancer cells. […] Briefly, EFO-27 cells were cultured and seeded in 96-well clear flat bottom plates at 30,000/well density in growth medium and were used for the assay at 100% confluence the following day, after a wash with chilled phosphate-buffered saline pH 7.4 (PBS). The binding assay was carried out by incubating cells with [^125I-Tyr^8]BRU-2477 in the absence or presence of varying concentrations of test compounds for 90 min at −10° C. All compounds were diluted in phosphate buffered saline (VWR CAT#45000-434) supplemented with 20 mM HEPES, 0.1% BSA, 0.5 mM PMSF (AEBSF), bacitracin (100 mg/L), pH 7.4. At the end of incubation, cells were washed with PBS and the radioactivity associated with each well was read using a Microplate Scintillation counter. [^125I-Tyr^8]BRU-2477 was custom made by GE Healthcare (Woburn, Mass.) and supplied as freeze-dried powder with a radiochemical purity (RCP) of >95% and specific activity of 2000 Ci/mmol.

[3] = biological target: LHRH binding sites on EFO-27 human ovarian cancer cells (human); assay: competition with [125I-Tyr8]BRU-2477 on EFO-27 cells
[4] = biological target: LHRH receptor (LHRH binding sites) on EFO-27 human ovarian cancer cells (human); assay: competition with [125I-Tyr8]BRU-2477, EFO-27 cells
[5] = biological target: LHRH receptor (LHRH binding sites) on EFO-27 human ovarian cancer cells (human); assay: competition with [125I-Tyr8]BRU-2477 for binding to EFO-27 cells
[6] = biological target: LHRH receptor (LHRH binding sites) on EFO-27 human ovarian cancer cells (human); assay: as above; remark: listed apart in the source
[7] = Table 19: analogs used in the stabilization studies

Molecule: N=C(N)NCCC[C@H](NC(=O)[C@@H](Cc1ccc2ccccc2c1)NC(=O)CN1CCN(CC(=O)O)CCN(CC(=O)O)CCN(CC(=O)O)CC1)C(=O)N[C@@H](Cc1c[nH]c2ccccc12)C(=O)N[C@@H](CO)C(=O)N[C@@H](Cc1c[nH]cn1)C(=O)N[C@H](CCCNC(=N)N)C(=O)N[C@@H](Cc1c[nH]c2ccccc12)C(=O)N[C@@H](Cc1ccc(C(=O)c2ccccc2)cc1)C(=O)N1CSC[C@H]1C(N)=O [Lu-BRU-3072]
remaining at 1 h, 0.3 mg/mL ([1]; liver homogenate at 37° C. for 60 min, mean ± SD, n = 3, read-out: % remaining (% of parent remaining)): 98.5 ± 0.2%
Stabilized relative to parent? ([1]; liver homogenate at 37° C. for 60 min, compared to Lu-BRU-2813 or unstabilized peptide): Yes

Molecule: N=C(N)NCCC[C@H](NC(=O)[C@@H](Cc1ccc2ccccc2c1)NC(=O)CN1CCN(CC(=O)O)CCN(CC(=O)O)CCN(CC(=O)O)CC1)C(=O)N[C@@H](Cc1c[nH]c2ccccc12)C(=O)N[C@@H](CO)C(=O)N[C@@H](Cc1c[nH]cn1)C(=O)N[C@H](CCCNC(=N)N)C(=O)N[C@@H](Cc1c[nH]c2ccccc12)C(=O)N[C@@H](Cc1ccc(C(=O)c2ccccc2)cc1)C(=O)N1C[C@H](F)C[C@H]1C(=O)NNC(N)=O [Lu-BRU-2994]
EC50 ([2]; Table 22, unit inferred): 600 nM
remaining at 1 h, 0.3 mg/mL [1]: 45.7 ± 1.2%

Molecule: N=C(N)NCCC[C@H](NC(=O)[C@@H](Cc1ccc2ccccc2c1)NC(=O)CN1CCN(CC(=O)O)CCN(CC(=O)O)CCN(CC(=O)O)CC1)C(=O)N[C@@H](Cc1c[nH]c2ccccc12)C(=O)N[C@@H](CO)C(=O)N[C@@H](Cc1c[nH]cn1)C(=O)N[C@H](CCCNC(=N)N)C(=O)N[C@@H](Cc1c[nH]c2ccccc12)C(=O)N[C@@H](Cc1ccc(C(=O)c2ccccc2)cc1)C(=O)N1CCCC[C@H]1C(=O)NNC(N)=O [Lu-BRU-2996]
remaining at 1 h, 0.3 mg/mL [1]: 71.7 ± 2.9%

Molecule: N=C(N)NCCC[C@@H](NC(=O)[C@H](Cc1c[nH]cn1)NC(=O)[C@H](CO)NC(=O)[C@H](Cc1c[nH]c2ccccc12)NC(=O)[C@H](Cc1c[nH]cn1)NC(=O)[C@@H]1CCC(=O)N1)C(=O)N[C@@H](Cc1c[nH]c2ccccc12)C(=O)N[C@@H](Cc1ccc(O)cc1)CN1CCC[C@H]1C(=O)NNC(N)=O [BRU-3122]
EC50 [2, 7]: 3130 nM
remaining at 1 h, 0.3 mg/mL [1]: 100%

Molecule: N=C(N)NCCC[C@H](NC(=O)[C@@H](Cc1ccc2ccccc2c1)NC(=O)CN1CCN(CC(=O)O)CCN(CC(=O)O)CCN(CC(=O)O)CC1)C(=O)N[C@@H](Cc1c[nH]c2ccccc12)C(=O)N[C@@H](CO)C(=O)N[C@@H](Cc1c[nH]cn1)C(=O)N[C@H](CCCNC(=N)N)C(=O)N[C@@H](Cc1c[nH]c2ccccc12)C(=O)N[C@@H](Cc1ccc(C(=O)c2ccccc2)cc1)C(=O)N1CC[C@H]1C(=O)NNC(N)=O [Lu-BRU-2993]
remaining at 1 h, 0.3 mg/mL [1]: 14.9 ± 13.2%

Molecule: N=C(N)NCCC[C@@H](NC(=O)[C@H](Cc1c[nH]cn1)NC(=O)[C@H](CO)NC(=O)[C@H](Cc1c[nH]c2ccccc12)NC(=O)[C@H](Cc1c[nH]cn1)NC(=O)[C@@H]1CCC(=O)N1)C(=O)N[C@@H](Cc1c[nH]c2ccccc12)C(=O)N[C@@H](Cc1ccc(O)cc1)C(=O)N1CCC[C@H]1C(=O)NNC(N)=O [BRU-2477, pGlu-His-Trp-Ser-His-Darg-Trp-Tyr-Pro-azaGly-NH2, reference compound] (HELM PEPTIDE1{[Glp].H.W.S.H.[dR].W.Y.P.[O=C(NN[*:1])[*:2]].[am]}$$$$V2.0)
EC50 ([2]; EFO-27 cells, competition with [125I-Tyr8]BRU-2477, 90 min): 740 nM
EC50 [2, 7]: 840 nM
remaining at 1 h, 0.3 mg/mL [1]: 11.9 ± 2.4%

Molecule: N=C(N)NCCC[C@H](NC(=O)[C@@H](Cc1ccc2ccccc2c1)NC(=O)CN1CCN(CC(=O)O)CCN(CC(=O)O)CCN(CC(=O)O)CC1)C(=O)N[C@@H](Cc1c[nH]c2ccccc12)C(=O)N[C@@H](CO)C(=O)N[C@@H](Cc1c[nH]cn1)C(=O)N[C@H](CCCNC(=N)N)C(=O)N[C@@H](Cc1c[nH]c2ccccc12)C(=O)N[C@@H](Cc1ccc(C(=O)c2ccccc2)cc1)CN1CCC[C@H]1C(=O)NNC(N)=O [BRU-3081] ({DOTA}-[d2Nal]RWSH[dR]W-X1)
EC50 [2, 7]: 300 nM
metabolism in liver homogenate [1]: no metabolism was observed

Molecule: N=C(N)NCCC[C@H](NC(=O)[C@@H](Cc1ccc2ccccc2c1)NC(=O)CN1CCN(CC(=O)O)CCN(CC(=O)O)CCN(CC(=O)O)CC1)C(=O)N[C@@H](Cc1c[nH]c2ccccc12)C(=O)N[C@@H](CO)C(=O)N[C@@H](Cc1c[nH]cn1)C(=O)N[C@H](CCCNC(=N)N)C(=O)N[C@@H](Cc1c[nH]c2ccccc12)C(=O)N[C@@H](Cc1ccc(C(=O)c2ccccc2)cc1)CN1CCC[C@H]1C(=O)NNC(N)=O [Lu-BRU-3081] ({DOTA}-[d2Nal]RWSH[dR]W-X1)
remaining at 1 h, 0.3 mg/mL [1]: 100%

Molecule: N=C(N)NCCC[C@H](NC(=O)[C@@H](Cc1ccc2ccccc2c1)NC(=O)CN1CCN(CC(=O)O)CCN(CC(=O)O)CCN(CC(=O)O)CC1)C(=O)N[C@@H](Cc1c[nH]c2ccccc12)C(=O)N[C@@H](CO)C(=O)N[C@@H](Cc1c[nH]cn1)C(=O)N[C@H](CCCNC(=N)N)C(=O)N[C@@H](Cc1c[nH]c2ccccc12)C(=O)N[C@@H](Cc1ccc(C(=O)c2ccccc2)cc1)C(=O)N1C[C@H](N)C[C@H]1C(=O)NNC(N)=O [Lu-BRU-2995]
remaining at 1 h, 0.3 mg/mL [1]: 98.7 ± 0.1%

Molecule: N=C(N)NCCC[C@H](NC(=O)[C@@H](Cc1ccc2ccccc2c1)NC(=O)CN1CCN(CC(=O)O)CCN(CC(=O)O)CCN(CC(=O)O)CC1)C(=O)N[C@@H](Cc1c[nH]c2ccccc12)C(=O)N[C@@H](CO)C(=O)N[C@@H](Cc1c[nH]cn1)C(=O)N[C@H](CCCNC(=N)N)C(=O)N[C@@H](Cc1c[nH]c2ccccc12)C(=O)N[C@@H](Cc1ccc(C(=O)c2ccccc2)cc1)C(=O)N1C[C@H](N)C[C@H]1C(=O)NNC(N)=O [BRU-2995]
EC50 [2, 7]: 410 nM
metabolism in liver homogenate [1]: no metabolism was observed

remaining at 1 h, 0.3 mg/mL [1]: 38.7 ± 5.9%
Molecule: N=C(N)NCCC[C@@H](NC(=O)[C@H](Cc1c[nH]cn1)NC(=O)[C@H](CO)NC(=O)[C@H](Cc1c[nH]c2ccccc12)NC(=O)[C@H](Cc1c[nH]cn1)NC(=O)[C@@H]1CCC(=O)N1)C(=O)N[C@@H](Cc1c[nH]c2ccccc12)C(=O)N[C@@H](Cc1ccc(O)cc1)C(=O)N1CSC[C@H]1C(=O)NNC(N)=O [BRU-3124] (HELM PEPTIDE1{[Glp].H.W.S.H.[dR].W.Y.[O=C([C@@H]1CSCN1[*:1])[*:2]].[O=C(NN[*:1])[*:2]].[am]}$$$$V2.0)

EC50 [3]: 450 nM
EC50 [4]: 450 nM
EC50 [5]: 450 nM
Molecule: DO3A10CM-G[Hpgly]HWSH[dR]W[Bpa]P[azaGly]-NH2 (reading uncertain; also: printed as DO3A10CM-Gly-Hpgly-His-Trp-Ser-His-Darg-Trp-Bpa4-Pro-azaGly-NH2) [BRU-2797]

EC50 [3]: 2000 nM
EC50 [5]: 2000 nM
Molecule: XHWSHXWXPX (as printed: DO3A10CM-Dphe-His-Trp-Ser-His-Darg-Trp-Bpa4-Pro-azaGly-NH2) [BRU-2894]

EC50 [3]: 260 nM
EC50 [4]: 260 nM
EC50 [5]: 260 nM
Molecule: XHWSHXWXPX (as printed: DO3A10CM-Damfe4-His-Trp-Ser-His-Darg-Trp-Bpa4-Pro-azaGly-NH2) [BRU-2757]

EC50 [6]: 650 nM
EC50 [4]: 440 nM
EC50 [5]: 440 nM
B1: BRU-2696 (peptide)
peptide: XXHWSHXWXPX
modifications: as printed: DO3A10CM-Gly-Abz4-Sar-His-Trp-Ser-His-Darg-Trp-Bpa4-Pro-azaGly-NH2 (Gly-Abz4 is the linker)

EC50 [6]: 650 nM
EC50 [3]: 620 nM
EC50 [5]: 620 nM
B2: BRU-2766 (peptide)
peptide: DO3A10CM-G[d1Nal]HWSH[dR]W[Bpa4]P[azaGly]-NH2
modifications: reading uncertain; also: printed as DO3A10CM-Gly-Dnal1-His-Trp-Ser-His-Darg-Trp-Bpa4-Pro-azaGly-NH2
